The test system of one assay is A549 cells. Description: Inhibition of cancer cell growth, MTT assay, A549. The assay is classed as cell-based. As to conditions: Homo sapiens, A549, 72 h exposure. An outline of the steps: (§1)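 Cells grown in RPMI 1640 with 10% FBS were seeded at about 4000 cells/well, left 24 h, then exposed to compound for 72 h (1% DMSO final). MTT absorbance at 570 nm was compared with viable cells at time of addition to give growth inhibition; IC50 from concentration–inhibition plots, triplicates.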

The target in a further assay is BRAF (Homo sapiens (Human), UniProt P15056). Put plainly: Z′-LYTE kinase inhibition assay (Invitrogen), BRAF. The assay is classed as biochemical. The following applies: 1 μM compound, Z′-LYTE method; read-out: % inhibition at 1 μM against BRAF.
A further assay deals with A375 cells. Put plainly: Inhibition of cancer cell growth, MTT assay, A375. The assay is classed as cell-based. As to conditions: Homo sapiens, A-375, 72 h exposure. An outline of the steps: as §1
The next assay addresses KDR (VEGFR2) (Homo sapiens (Human), UniProt P35968). Description: Z′-LYTE kinase inhibition assay (Invitrogen), KDR. The assay is classed as biochemical. As to conditions: Z′-LYTE method; for inhibition at 1 µM: 1 μM compound, read-out: % inhibition at 1 μM against KDR; for IC50: read-out: IC50 against KDR. An outline of the steps: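 Z′-LYTE FRET assay: 10 μL reactions with 0.5–11.7 ng KDR and 2 μM Tyr 01 peptide in 50 mM HEPES pH 7.5, 10 mM MgCl2, 1 mM EGTA, 0.01% BRIJ-35, 1 h at room temperature. Development Reagent B (1:256) added for 60 min, fluorescence read; IC50 from concentration–inhibition curves.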

The target of a further assay is BRAF V600E (Homo sapiens (Human), UniProt P15056, V600E). Put plainly: Z′-LYTE kinase inhibition assay (Invitrogen), BRAF V600E. Type of assay: biochemical. The following applies: Z′-LYTE method; for inhibition at 1 µM: 1 μM compound, read-out: % inhibition at 1 μM against BRAF V600E; for IC50: read-out: IC50 against BRAF V600E. A digest of the protocol:
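FRET-based Z′-LYTE peptide phosphorylation format in 50 mM HEPES pH 7.5, 0.01% BRIJ-35, 10 mM MgCl2, 1 mM EGTA with ATP. Kinase reaction 60 min at room temperature, then protease development step 60 min at room temperature before fluorescence read. IC50 from compound concentration versus percent inhibition.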

Data on eight molecules can be found in US10759766B2, “Certain chemical entities, compositions, and methods” (NeuPharma, Inc., priority 2011, dated 2020).

One may read the IC50 as the midpoint of a concentration-inhibition curve. By inhibition is commonly meant the percentage by which the read-out fell short of the control.

BRAF, sequence (P15056 whole entry): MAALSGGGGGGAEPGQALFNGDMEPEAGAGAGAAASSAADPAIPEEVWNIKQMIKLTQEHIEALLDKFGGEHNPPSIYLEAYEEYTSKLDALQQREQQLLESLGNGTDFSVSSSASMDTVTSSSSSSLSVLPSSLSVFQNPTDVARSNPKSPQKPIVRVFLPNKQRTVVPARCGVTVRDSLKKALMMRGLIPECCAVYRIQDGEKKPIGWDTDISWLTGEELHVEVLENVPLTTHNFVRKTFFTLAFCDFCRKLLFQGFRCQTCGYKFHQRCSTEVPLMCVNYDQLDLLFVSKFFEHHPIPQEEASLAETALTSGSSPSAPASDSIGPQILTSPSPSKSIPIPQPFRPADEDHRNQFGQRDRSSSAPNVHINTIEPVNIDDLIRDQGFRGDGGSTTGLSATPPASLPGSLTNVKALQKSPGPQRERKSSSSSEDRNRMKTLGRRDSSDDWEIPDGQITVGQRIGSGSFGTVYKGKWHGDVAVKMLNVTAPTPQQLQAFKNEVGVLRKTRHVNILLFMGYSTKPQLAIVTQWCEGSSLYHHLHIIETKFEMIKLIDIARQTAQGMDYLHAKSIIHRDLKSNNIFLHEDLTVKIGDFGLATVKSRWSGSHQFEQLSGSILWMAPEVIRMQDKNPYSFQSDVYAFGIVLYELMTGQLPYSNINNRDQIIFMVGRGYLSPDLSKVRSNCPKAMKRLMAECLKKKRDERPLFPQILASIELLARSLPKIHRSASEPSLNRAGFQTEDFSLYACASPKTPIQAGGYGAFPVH
BRAF V600E, sequence (P15056 whole entry V600E): as the sequence (P15056 whole entry) above, with V600E counted along it
KDR (VEGFR2), sequence (P35968 20-1356): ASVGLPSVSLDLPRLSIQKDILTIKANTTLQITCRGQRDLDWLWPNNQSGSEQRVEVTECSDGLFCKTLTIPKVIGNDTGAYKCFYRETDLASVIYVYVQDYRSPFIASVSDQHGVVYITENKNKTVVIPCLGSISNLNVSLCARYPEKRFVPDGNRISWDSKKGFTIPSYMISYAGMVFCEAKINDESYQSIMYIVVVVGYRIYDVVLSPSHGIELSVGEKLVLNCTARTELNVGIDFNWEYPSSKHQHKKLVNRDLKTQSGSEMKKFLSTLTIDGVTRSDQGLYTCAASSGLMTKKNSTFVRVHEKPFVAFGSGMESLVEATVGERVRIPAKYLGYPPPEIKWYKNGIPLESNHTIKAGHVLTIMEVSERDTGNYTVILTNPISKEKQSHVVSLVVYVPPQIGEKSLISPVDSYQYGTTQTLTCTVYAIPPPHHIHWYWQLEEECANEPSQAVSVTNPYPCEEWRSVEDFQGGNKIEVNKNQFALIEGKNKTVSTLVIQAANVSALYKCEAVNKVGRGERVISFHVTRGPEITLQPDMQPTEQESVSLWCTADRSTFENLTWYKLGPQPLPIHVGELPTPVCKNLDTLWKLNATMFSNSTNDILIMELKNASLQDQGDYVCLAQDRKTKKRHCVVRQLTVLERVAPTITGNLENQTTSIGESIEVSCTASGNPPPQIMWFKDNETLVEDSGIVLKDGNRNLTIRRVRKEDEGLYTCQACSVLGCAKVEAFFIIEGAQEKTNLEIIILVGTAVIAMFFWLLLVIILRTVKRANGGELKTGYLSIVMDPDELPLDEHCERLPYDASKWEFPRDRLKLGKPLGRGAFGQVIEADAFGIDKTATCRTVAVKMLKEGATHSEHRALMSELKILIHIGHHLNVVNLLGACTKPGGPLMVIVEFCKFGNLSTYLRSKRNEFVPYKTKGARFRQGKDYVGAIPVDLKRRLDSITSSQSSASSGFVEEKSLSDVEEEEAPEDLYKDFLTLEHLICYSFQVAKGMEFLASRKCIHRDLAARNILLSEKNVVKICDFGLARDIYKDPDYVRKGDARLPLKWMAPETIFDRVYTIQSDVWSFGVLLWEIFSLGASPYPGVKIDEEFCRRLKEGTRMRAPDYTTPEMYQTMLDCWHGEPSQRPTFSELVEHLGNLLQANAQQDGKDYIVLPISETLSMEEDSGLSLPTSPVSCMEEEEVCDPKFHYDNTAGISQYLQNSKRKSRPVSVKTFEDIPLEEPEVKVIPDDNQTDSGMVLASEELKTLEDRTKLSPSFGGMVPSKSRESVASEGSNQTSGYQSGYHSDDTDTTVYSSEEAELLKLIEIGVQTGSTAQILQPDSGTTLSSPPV

Regarding `O=C(c1cccc(NC(=O)c2cc(C(F)(F)F)ccc2Cl)c1)c1ccc2nccnc2c1` [Compound C106, 2-chloro-N-(3-(quinoxaline-6-carbonyl)phenyl)-5-(trifluoromethyl)benzamide], the IC50 in the assay on A549 cells was more than 5000 nM; in the assay with A375 cells it was less than 1000 nM. Moreover, the inhibition at 1 µM at BRAF is less than 70%; on KDR (VEGFR2) it was less than 70%; at BRAF V600E, 70 to 89%.
Turning to `O=C(Nc1cc(F)cc(C(=O)c2ccc3nccnc3c2)c1)Nc1ccc(Cl)c(C(F)(F)F)c1` [Compound C026, 1-(4-chloro-3-(trifluoromethyl)phenyl)-3-(3-fluoro-5-(quinoxaline-6-carbonyl)phenyl)urea], the IC50 was 2000 to 5000 nM with A549 cells and 1000 to 5000 nM in the assay with A375 cells. The inhibition at 1 µM was less than 70% on BRAF, 70 to 89% on KDR (VEGFR2) and 70 to 89% on BRAF V600E.
Turning to `O=C(Nc1cc(F)cc(C(=O)c2ccc3ncc(N4CCOCC4)nc3c2)c1)Nc1cccc(C(F)(F)F)c1` [Compound C038, 1-(3-fluoro-5-(3-morpholinoquinoxaline-6-carbonyl)phenyl)-3-(3-(trifluoromethyl)phenyl)urea], the IC50 in the assay with A549 cells was less than 2000 nM; with A375 cells, less than 1000 nM; on KDR (VEGFR2), less than 100 nM; at BRAF V600E it was less than 100 nM. Further, the inhibition at 1 µM on BRAF was 70 to 89%; on KDR (VEGFR2), 70 to 89%; at BRAF V600E it was more than 89%.
As to `O=C(Nc1cc(F)cc(C(=O)c2ccc3ncc(N4CCOCC4)nc3c2)c1)c1cccc(C(F)(F)F)c1` [Compound C143, N-(3-fluoro-5-(3-morpholinoquinoxaline-6-carbonyl)phenyl)-3-(trifluoromethyl)benzamide], the IC50 in the assay with A549 cells was 2000 to 5000 nM; with A375 cells it was less than 1000 nM; on KDR (VEGFR2), less than 100 nM; on BRAF V600E, less than 100 nM. The results for the inhibition at 1 µM on BRAF, at KDR (VEGFR2) and at BRAF V600E were less than 70%, 70 to 89% and more than 89%, respectively.
On to `O=C(Nc1ccc(F)c(C(=O)c2ccc3nccnc3c2)c1)Nc1ccc(Cl)c(C(F)(F)F)c1` [Compound C015, 1-(4-chloro-3-(trifluoromethyl)phenyl)-3-(4-fluoro-3-(quinoxaline-6-carbonyl)phenyl)urea], for which the IC50 in the assay on A549 cells was less than 2000 nM; in the assay with A375 cells it was less than 1000 nM; at KDR (VEGFR2) it was less than 100 nM; on BRAF V600E it was less than 100 nM. In addition, the inhibition at 1 µM on BRAF was less than 70%; at KDR (VEGFR2) it was more than 89%; on BRAF V600E, more than 89%.
Take `O=C(Nc1cccc(C(F)(F)F)c1)Nc1cc(F)c(F)c(C(=O)c2ccc3nccnc3c2)c1F` [Compound C006, 1-(2,4,5-trifluoro-3-(quinoxaline-6-carbonyl)phenyl)-3-(3-(trifluoromethyl)phenyl)urea]: the IC50 with A549 cells and in the assay on A375 cells was more than 5000 nM each time. Moreover, the inhibition at 1 µM is less than 70% on BRAF, less than 70% at KDR (VEGFR2) and 70 to 89% on BRAF V600E.
On to `O=C(Nc1cc(F)c(F)c(C(=O)c2ccc3ncc(N4CCOCC4)nc3c2)c1)c1ccc(Cl)c(C(F)(F)F)c1` [Compound C146, 4-chloro-N-(3,4-difluoro-5-(3-morpholinoquinoxaline-6-carbonyl)phenyl)-3-(trifluoromethyl)benzamide], for which the IC50 in the assay on A549 cells is 2000 to 5000 nM; with A375 cells it was less than 1000 nM; at KDR (VEGFR2) it was less than 100 nM; at BRAF V600E, more than 100 nM. Besides, the inhibition at 1 µM was less than 70% at BRAF, more than 89% at KDR (VEGFR2) and 70 to 89% at BRAF V600E.
As for `O=C(Nc1cc(F)cc(C(=O)c2ccc3ncc(N4CCOCC4)nc3c2)c1)Nc1ccc(Cl)c(C(F)(F)F)c1` [Compound C031, 1-(4-chloro-3-(trifluoromethyl)phenyl)-3-(3-fluoro-5-(3-morpholinoquinoxaline-6-carbonyl)phenyl)urea], the results for the IC50 in the assay on A549 cells and with A375 cells were 2000 to 5000 nM and less than 1000 nM, respectively. In addition, the inhibition at 1 µM on BRAF was less than 70%; on KDR (VEGFR2) it was 70 to 89%; at BRAF V600E, 70 to 89%.
